Results taken from US6916834B2, “Preparations and use of an Ah receptor ligand, 2-(1′H-indole-3′-carbonyl)-thiazole-4-carboxylic acid methyl ester” (Wisconsin Alumni Research Foundation, priority 2001, dated 2005).

What was measured:
Ah receptor [1] = target: T1, Ah receptor (Mus musculus, UniProt P30561); experiment: AhR ligand activity assay (luciferase reporter gene, H1L1.1C2 ligand reporting cells); assay type: cell-based
T1 construct: endogenous in cells; host or cells: H1L1.1C2 AhR ligand reporting cells
T1 sequence (P30561 10-848): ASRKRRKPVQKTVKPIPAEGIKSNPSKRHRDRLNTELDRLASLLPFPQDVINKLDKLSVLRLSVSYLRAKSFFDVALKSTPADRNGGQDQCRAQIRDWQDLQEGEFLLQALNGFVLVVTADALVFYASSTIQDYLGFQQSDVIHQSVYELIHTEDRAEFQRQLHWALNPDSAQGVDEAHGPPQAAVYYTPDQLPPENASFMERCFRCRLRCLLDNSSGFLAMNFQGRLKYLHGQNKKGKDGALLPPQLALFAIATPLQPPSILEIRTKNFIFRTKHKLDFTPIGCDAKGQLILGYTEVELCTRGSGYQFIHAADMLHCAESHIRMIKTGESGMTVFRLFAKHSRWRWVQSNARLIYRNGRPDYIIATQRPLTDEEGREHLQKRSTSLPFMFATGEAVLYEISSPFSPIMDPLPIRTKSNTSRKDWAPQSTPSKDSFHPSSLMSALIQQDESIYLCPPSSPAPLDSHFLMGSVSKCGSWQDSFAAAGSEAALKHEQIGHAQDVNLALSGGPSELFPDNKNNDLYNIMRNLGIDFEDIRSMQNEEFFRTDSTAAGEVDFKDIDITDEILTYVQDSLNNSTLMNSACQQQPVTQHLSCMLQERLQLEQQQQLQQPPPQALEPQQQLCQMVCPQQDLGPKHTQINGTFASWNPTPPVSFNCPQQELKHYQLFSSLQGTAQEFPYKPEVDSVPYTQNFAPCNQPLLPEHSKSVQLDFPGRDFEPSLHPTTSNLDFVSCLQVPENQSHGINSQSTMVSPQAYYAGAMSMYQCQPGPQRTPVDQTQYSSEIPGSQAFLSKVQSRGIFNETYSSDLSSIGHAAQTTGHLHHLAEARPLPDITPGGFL
Protocol: The ligand activity is determined most preferably by an activity assay described below. In brief, the ligand extracts are added to Ah receptor-containing ligand reporter cells. These cells are then incubated for 4 hours and the cells are lysed to release the formed luciferase. This enzyme typically is measured according to the kit sold by Promega (Madison, Wis., USA.). Luciferase activity is measured by light emission recorded by a luminometer. The luminometer readings are taken after a substrate solution is injected into a well.
The cell line H1L1.1C2 was maintained in a culture medium (DMEM+10% FBS) with G418 at a concentration of 400 μg/ml and incubated under an atmosphere of 37° C., 6% CO2, and 100% humidity. A 96 well sterile cell culture plate with about 30,000 cells per well in 200 μl of the culture medium without G418 was prepared and incubated for at least 12 hours before being dosed for ligand activity assay.
The solvents from the ligand activities were evaporated and the activities were reconstituted in DMSO and 1 μl of this solution was used to dose the ligand reporting cells in a well with 200 μl of culture medium. One row of the reporting cells in each assay plate was dosed with 1 μl of the DMSO solutions of a set of βNF standards to generate a standard dose response curve. The dosed cells were incubated for 6 hours under the same environment as they were maintained. The cells were washed twice with a 1×PBS (pH 6.9) after the incubation and the culture wells were scanned under an inverted microscope to detect any obvious cell number change due to dosing. The cells were lysed by adding 50 μl of a 1×cell lysis reagent (Promega, Madison, Wis., USA) and 10 μl of the lysate from each well were transferred into a corresponding well of a Microlite 2 plate (Dynex Technologies Inc., Chantilly, Va., USA) for luminometer reading. A MLX Microtiter Plate Luminometer (Dynex Technologies Inc.) was programmed to inject 50 μl of a luciferase substrate solution (Promega) into a well, read the light intensities in Relative Light Units (RLU's) generated by the luciferase reaction for 5 seconds after a one second delay following the injection, and take the average of the 5 second readings as a final RLU.
Dose response curves of RLU's vs. doses of βNF standards (ng in each assay well) from each plate were plotted and the RLU's generated by the samples were converted into βNF equivalent (BEQ) as ligand activity by consulting the βNF dose response curve generated from the same plate. Data were reported as ligand activity (in BEQ) vs. treatments or fractions from a purification procedure.

Ah receptor [2] = target: T1, Ah receptor; experiment: Reduction with NaBH4, phases assayed for biological activity; assay type: cell-based; details: saturated NaBH4 in ethanol, overnight, room temperature; data not shown
Protocol: Specified quantity of the compound was pipetted into a glass via for reaction and the solvents were evaporated. A saturated solution (100 μl) of NaBH4 in ethanol (200 proof, Aaper Alcohol and Chemical Co. Shelbyville, Ky., U.S.A.) was added to each reaction tube. The mixture was incubated overnight at room temperature and stopped by adding 200 μl of water. The reactions were extracted with 200 μl of chloroform twice and the chloroform phases were pooled. The solvents from both aqueous and chloroform phases were evaporated and both phases were assayed for biological activities. The chloroform phase was analyzed with electron impact mass spectroscopy as was a blank treated identically but containing no isolate.

[3] = Solubility and stability characterisation of the ligand preparation; assay type: physicochemical
Protocol: The preferred ligand preparation described below can be characterized by its solubility. The ligand is extractable from tissue by 80% methanol/20% water. After the boiling and acid treatment, the ligand is extractable in chloroform.
The ligand preparation is unstable in base but stable in up to two normal acid for at least 24 hours. The preparation is stable to heating at 37° C. overnight (16 hours) and at 100° C. for 24 hours.

Ah receptor [4] = target: T1, Ah receptor; experiment: Heat treatment followed by ligand activity assay; assay type: cell-based; details: 100° C. water bath, 30 minutes
Protocol: The methanolic extracts either in methanol or DMSO in a cleaned glass vials were heated in a 100° C. water bath for 30 minutes and the vials were cooled to room temperature. The extracts in the solvents were directly assayed as they were to determine the activities.

Ah receptor [5] = target: T1, Ah receptor; experiment: Base treatment followed by ligand activity assay; assay type: cell-based; details: 0.1 N KOH, 37° C., overnight
Protocol: An aliquot of methanolic extracts of about 4 ng BEQ was transferred into a cleaned glass vial and the solvents were evaporated. A solution (200 ul) of 0.1 N KOH in water was added into the vial. The vials were incubated at 37° C. overnight. After the incubation, the tubes were cooled down and neutralized slowly with HCl. The treatment mixtures were extracted with 200 μl of chloroform. Chloroform and aqueous phases were separated and the solvents were evaporated. DMSO (10 μl) was added to each tube for activity assay. βNF and blank extracts were treated the same way as for the sample.

Ah receptor [6] = target: T1, Ah receptor; experiment: Base hydrolysis and methylation, products assayed for biological activity; assay type: cell-based; details: same manipulations as for the ligand
Protocol: To 2 μl of methanol with 3 ng BEQ of the sample, 38 μl of methanol of 10 μl of a 0.5 mm KOH in water were added and mixed. The reaction was incubated at 37° C. for 2 hours and stopped by adding 10 μl of 0.5 mmolar HCl in water to bring pH to around 5.0. To the reaction mix, 30 μl of water, 10 μl of methanol, and 50 μl of chloroform were added and mixed. The chloroform phase was separated and kept after centrifugation of the mixture. The chloroform extraction was repeated and the two chloroform phases were pooled. The chloroform phase was split into two parts, one for biological assay and the other for methylation. The same manipulations were performed for 3 ng of βNF in 2 μl of methanol and 2 μl of methanol as controls.
The solvents were evaporated and the products were assayed side by side with the hydrolysis products without methylation.

## COc1cc(-c2cc(=O)c3ccccc3o2)ccc1[N+](=O)[O-] [3′-methoxy-4′-nitroflavone]
Ah receptor [1]; AhR antagonist, data not shown
  antagonism of the reporter gene response to ITE: block the reporter gene response to the compound in a dose dependent fashion

## COC(=O)c1csc(C(=O)c2c[nH]c3ccccc23)n1 [ITE, 2-(1′-H-indole-3′-carbonyl)-thiazole-4-carboxylic acid methyl ester]
Ah receptor [2]
  biological activity after reduction with NaBH4: completely destroyed the biological activity
Ah receptor [1]
  biological activity of synthetic compound compared with the isolate: the same biological activity
Ah receptor [1]; dose response curves after 4 hours of incubation, FIG. 7B
  reporter gene potency relative to βNF: about five
[3]
  extractability from tissue by 80% methanol/20% water: extractable
  stability in base: unstable
  time stable in up to two normal acid: at least 24 hours
[3]; 24 hours
  stability to heating at 100° C.: stable
[3]; after the boiling and acid treatment
  extractability in chloroform: extractable
[3]; overnight (16 hours)
  stability to heating at 37° C.: stable

## O=c1cc(-c2ccccc2)oc2ccc3ccccc3c12 [βNF, β-Naphthoflavone]
Ah receptor [4]
  response of ligand activity to heat treatment: did not respond
Ah receptor [5]
  response of ligand activity to base treatment: did not respond
Ah receptor [1]; 0.05 ng of βNF per assay well (200 μl medium), 96 well format
  induction over vehicle control: two to three
Ah receptor [1]; per assay well, 96 well format
  amount generating a distinguishable signal: 0.01 ng
Ah receptor [6]
  change in biological activity after hydrolysis and methylation manipulations: no change
